Reference: patent publication US12643899B2, “Antiviral agents, uses thereof and methods for their preparation” (The University of British Columbia, priority 2020, dated 2026)
Read-outs that look alike come from different tables or passages of the source.

What was measured:
ZIKV = test: NS1 and dsRNA in ZIKV-infected brain organoids; format: cell-based, Zika virus; settings: 10 μM, 69 hours, MOI 1
Description: FIG. 17 is a schematic showing the general method 20 used in Example 6. Referring to FIG. 17, following growth of the brain organoids in STEMdiff™ media 22 (4 organoids/well), the media was aspirated 24. Then, 500 μL ZIKV at the desired MOI in fresh media was added 26 and the brain organoids incubated at 37° C. for 3 hours with gentle shaking 28. The brain organoids were then washed with 2×1 mL PBS 30, and fresh media and CA or cladoniamide C (CC) added to the desired concentration 32 prior to incubation for the desired time at 37° C. 34. The supernatant was collected and frozen at −86° C. 36 prior to analysis and the brain organoids transferred to an Eppendorf with paraformaldehyde for electron microscopy 38.
FIG. 18 is a plot showing the anti-ZIKV activity of cladoniamide A (incubation with 1 μM CA for 72 hours; 2 biological replicates, each with 4 organoids/well) using four brain organoid systems. There was a greater than 4-log reduction in extracellular ZIKV titer when treated with CA. […] FIGS. 20 and 21 show plots showing the anti-ZIKV activity of CA and CC (incubation with 10 μM CA or CC for 69 hours, MOI 1; 4 technical replicates as there were 4 organoids/[…]).

[1] = MTS cytotoxicity assay in A549 cells; format: cell-based, human; settings: human, A549 cells (human lung carcinoma)
Description: An MTS assay was performed to determine the cytotoxicity concentration 50% (CC50) of cladoniamide A (CA) in human A549 cells, a cell line from human lung carcinoma. Various concentrations of CA were added to cultured A549 cells and incubated (37° C., 5% CO2) for 48 h. Cell viability was then measured by an MTS assay kit (CellTiter 96™ Aqueous One Solution cell proliferation assay, Promega) according to the manufacturer's instructions. Curve fitting was performed in Igor Pro (WaveMetrics) using a hyperbolic fit algorithm (FIG. 1). The CC50 of CA in A549 cells was determined to be 54±5 μM. An MTS assay was also performed to determine the CC50 of CA in human U87 MG cells, a cell line from human brain. Various concentrations of CA were added to cultured U87 MG cells and incubated (37° C., 5% CO2) for 48 h. Cell viability was then measured by an MTS assay kit (CellTiter 96 Aqueous One Solution cell proliferation assay, Promega) according to the manufacturer's instructions. Curve fitting was performed in Igor Pro (WaveMetrics) using a hyperbolic fit algorithm (FIG. 2).

SARS-CoV-2 = SARS-CoV-2 intracellular viral RNA and nucleocapsid protein in Caco-2 cells; format: cell-based

Compound: COc1c2n(c3ccccc13)[C@]1(O)C(=O)N(C)C(=O)[C@]1(O)c1c-2[nH]c2ccc(Cl)cc12 [CA, (11S,15R)-7-chloro-11,15-dihydroxy-23-methoxy-13-methyl-3,13,16-triazahexacyclo[14.7.0.0^2,10.0^4,9.0^11,15.0^17,22]tricosa-1(23),2(10),4(9),5,7,17,19,21-octaene-12,14-dione]
- anti-ZIKV activity in brain organoids (NS1, dsRNA) (ZIKV): showed anti-ZIKV activity
- CC50 at 48 h [1]: 54000 ± 5000 nM
- EC50 (SARS-CoV-2; Severe acute respiratory syndrome coronavirus 2, Caco-2, read-out: ED50, intracellular SARS-CoV-2 nucleocapsid protein, Caco-2 cells, 3 hours pre-treatment): 5 nM
- EC50 (SARS-CoV-2; Severe acute respiratory syndrome coronavirus 2, Caco-2, read-out: ED50, intracellular viral RNA, Caco-2 cells, 3 hours pre-treatment): 2 nM
